{"source": "ChEMBL document CHEMBL4665648", "about": "“Potent and selective inhibitors of receptor-interacting protein kinase 1 that lack an aromatic back pocket group” (Bioorg Med Chem Lett, 2019)", "key": {"[1]": {"target": "Serine/threonine-protein kinase BRSK1 (Homo sapiens) (UniProt Q8TDC3)", "sequence (Q8TDC3 whole entry)": "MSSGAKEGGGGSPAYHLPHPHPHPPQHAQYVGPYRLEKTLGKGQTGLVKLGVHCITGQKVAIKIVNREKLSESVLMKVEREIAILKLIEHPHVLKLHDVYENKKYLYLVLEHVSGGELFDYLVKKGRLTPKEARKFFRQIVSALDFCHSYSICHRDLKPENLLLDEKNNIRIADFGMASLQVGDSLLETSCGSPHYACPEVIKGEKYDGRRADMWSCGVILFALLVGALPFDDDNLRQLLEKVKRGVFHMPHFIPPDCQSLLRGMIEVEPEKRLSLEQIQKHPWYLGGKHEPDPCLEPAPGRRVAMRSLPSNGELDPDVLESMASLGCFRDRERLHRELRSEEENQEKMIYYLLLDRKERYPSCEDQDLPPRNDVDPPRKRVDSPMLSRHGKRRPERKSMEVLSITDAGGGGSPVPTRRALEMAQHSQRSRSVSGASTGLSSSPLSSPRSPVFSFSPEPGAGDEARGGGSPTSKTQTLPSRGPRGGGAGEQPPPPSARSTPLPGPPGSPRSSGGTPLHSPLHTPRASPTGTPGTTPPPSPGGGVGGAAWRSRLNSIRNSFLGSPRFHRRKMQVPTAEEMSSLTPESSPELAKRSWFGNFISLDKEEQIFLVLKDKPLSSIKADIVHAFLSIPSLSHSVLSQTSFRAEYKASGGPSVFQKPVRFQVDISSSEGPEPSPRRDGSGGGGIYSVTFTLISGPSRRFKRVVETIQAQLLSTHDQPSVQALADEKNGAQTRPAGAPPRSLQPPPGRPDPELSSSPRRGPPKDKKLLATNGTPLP", "test": "Inhibition of recombinant human GST-tagged full length BrSK1 expressed in baculovirus expression system using Ser/Thr 21 as substrate at 10 uM incubated for 60 mins by Z'-Lyte assay relative to control"}, "[2]": {"target": "Tyrosine-protein kinase FRK (Homo sapiens) (UniProt P42685)", "test": "Inhibition of recombinant human GST-tagged full length FRK expressed in baculovirus expression system using Tyr 01 as substrate at 10 uM incubated for 60 mins by Z'-Lyte assay relative to control"}, "[3]": {"target": "Aurora kinase B (Homo sapiens) (UniProt Q96GD4)", "sequence (Q96GD4 whole entry)": "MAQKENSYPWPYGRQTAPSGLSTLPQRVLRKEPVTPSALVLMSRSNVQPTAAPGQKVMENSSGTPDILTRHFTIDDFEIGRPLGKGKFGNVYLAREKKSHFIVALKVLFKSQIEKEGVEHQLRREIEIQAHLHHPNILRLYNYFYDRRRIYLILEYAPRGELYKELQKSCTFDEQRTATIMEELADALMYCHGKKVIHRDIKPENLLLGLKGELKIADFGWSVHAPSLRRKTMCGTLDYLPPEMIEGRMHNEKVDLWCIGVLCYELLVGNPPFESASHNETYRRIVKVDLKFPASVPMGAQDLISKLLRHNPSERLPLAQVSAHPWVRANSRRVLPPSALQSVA", "test": "Inhibition of recombinant human His-tagged full length Aurora B expressed in baculovirus expression system using Ser/Thr 01 as substrate at 10 uM incubated for 60 mins by Z'-Lyte assay relative to control"}, "[4]": {"target": "Casein kinase I isoform epsilon (Homo sapiens) (UniProt P49674)", "sequence (P49674 whole entry, looked up, canonical isoform)": "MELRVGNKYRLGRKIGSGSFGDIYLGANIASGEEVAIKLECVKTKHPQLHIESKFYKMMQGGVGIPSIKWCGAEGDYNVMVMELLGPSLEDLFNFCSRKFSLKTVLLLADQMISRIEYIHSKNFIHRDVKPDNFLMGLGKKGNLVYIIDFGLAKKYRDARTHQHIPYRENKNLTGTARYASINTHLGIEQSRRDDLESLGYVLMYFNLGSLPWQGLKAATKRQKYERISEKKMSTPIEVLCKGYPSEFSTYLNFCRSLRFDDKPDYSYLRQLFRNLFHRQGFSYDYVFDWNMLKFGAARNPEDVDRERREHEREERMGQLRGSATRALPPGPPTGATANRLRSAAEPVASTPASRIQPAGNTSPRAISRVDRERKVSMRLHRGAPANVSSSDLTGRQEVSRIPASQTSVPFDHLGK", "test": "Inhibition of recombinant human His-tagged full length CK1epsilon expressed in baculovirus expression system using Ser/Thr 11 as substrate at 10 uM incubated for 60 mins by Z'-Lyte assay relative to control"}, "[5]": {"target": "Insulin-like growth factor 1 receptor (Homo sapiens) (UniProt P08069)", "sequence (P08069 31-736 limits assumed)": "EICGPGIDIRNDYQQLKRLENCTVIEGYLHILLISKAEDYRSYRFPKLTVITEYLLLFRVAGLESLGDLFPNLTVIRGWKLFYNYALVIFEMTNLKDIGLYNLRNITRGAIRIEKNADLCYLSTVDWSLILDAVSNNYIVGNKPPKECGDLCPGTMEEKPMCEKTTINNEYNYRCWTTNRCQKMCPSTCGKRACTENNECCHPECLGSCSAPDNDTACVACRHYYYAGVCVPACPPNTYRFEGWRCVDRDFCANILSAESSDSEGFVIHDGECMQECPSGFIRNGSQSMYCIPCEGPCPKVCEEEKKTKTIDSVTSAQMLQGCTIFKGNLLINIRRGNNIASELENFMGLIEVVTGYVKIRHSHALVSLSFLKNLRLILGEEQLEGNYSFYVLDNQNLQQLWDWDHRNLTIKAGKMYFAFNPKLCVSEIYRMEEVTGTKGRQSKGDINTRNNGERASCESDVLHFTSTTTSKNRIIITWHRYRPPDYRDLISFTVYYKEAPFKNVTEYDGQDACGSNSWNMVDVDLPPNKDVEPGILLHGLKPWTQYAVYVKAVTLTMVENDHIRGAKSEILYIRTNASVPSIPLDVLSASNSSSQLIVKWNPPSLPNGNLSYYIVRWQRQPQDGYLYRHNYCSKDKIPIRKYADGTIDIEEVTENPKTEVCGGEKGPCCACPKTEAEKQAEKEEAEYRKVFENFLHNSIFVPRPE", "sequence (P08069 741-1367 limits assumed)": "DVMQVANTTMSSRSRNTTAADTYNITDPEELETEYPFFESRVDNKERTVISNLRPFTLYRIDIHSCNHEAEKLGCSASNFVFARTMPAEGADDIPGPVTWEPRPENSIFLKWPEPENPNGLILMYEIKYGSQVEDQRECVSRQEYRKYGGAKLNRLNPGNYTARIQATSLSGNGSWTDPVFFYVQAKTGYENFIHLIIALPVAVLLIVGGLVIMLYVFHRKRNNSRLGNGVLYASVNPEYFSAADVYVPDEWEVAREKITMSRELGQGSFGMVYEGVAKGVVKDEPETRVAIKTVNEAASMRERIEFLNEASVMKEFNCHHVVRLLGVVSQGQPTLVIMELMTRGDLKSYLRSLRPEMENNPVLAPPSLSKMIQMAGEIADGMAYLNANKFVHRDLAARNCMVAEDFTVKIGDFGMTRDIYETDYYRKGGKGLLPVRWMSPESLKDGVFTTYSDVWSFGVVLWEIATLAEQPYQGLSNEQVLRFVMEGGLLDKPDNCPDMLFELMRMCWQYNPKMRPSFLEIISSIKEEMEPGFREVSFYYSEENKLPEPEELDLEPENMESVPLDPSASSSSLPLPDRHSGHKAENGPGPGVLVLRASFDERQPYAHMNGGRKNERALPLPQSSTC", "test": "Inhibition of recombinant human His-tagged IGF1R (960 to 1397 residues) expressed in baculovirus expression system using Tyr 01 as substrate at 10 uM incubated for 60 mins by Z'-Lyte assay relative to control"}, "[6]": {"target": "Megakaryocyte-associated tyrosine-protein kinase (Homo sapiens) (UniProt P42679)", "sequence (P42679 whole entry)": "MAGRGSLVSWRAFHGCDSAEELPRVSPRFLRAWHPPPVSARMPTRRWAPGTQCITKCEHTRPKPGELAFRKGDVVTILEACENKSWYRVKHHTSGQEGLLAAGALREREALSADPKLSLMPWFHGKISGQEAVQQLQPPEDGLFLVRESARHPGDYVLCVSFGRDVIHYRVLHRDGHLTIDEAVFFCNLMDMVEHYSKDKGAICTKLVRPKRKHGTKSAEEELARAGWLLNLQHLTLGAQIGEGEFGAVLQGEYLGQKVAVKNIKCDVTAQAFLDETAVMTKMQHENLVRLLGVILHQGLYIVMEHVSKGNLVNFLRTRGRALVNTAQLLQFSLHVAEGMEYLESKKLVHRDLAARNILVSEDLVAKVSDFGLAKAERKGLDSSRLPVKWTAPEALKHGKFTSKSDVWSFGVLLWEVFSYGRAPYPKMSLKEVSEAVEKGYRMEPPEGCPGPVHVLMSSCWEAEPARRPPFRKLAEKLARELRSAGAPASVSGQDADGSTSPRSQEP", "test": "Inhibition of recombinant human His-tagged full length Hyl expressed in Escherichia coli expression system using Tyr 01 as substrate at 10 uM incubated for 60 mins by Z'-Lyte assay relative to control"}, "[7]": {"target": "MAP kinase-activated protein kinase 2 (Homo sapiens) (UniProt P49137)", "sequence (P49137 whole entry, looked up)": "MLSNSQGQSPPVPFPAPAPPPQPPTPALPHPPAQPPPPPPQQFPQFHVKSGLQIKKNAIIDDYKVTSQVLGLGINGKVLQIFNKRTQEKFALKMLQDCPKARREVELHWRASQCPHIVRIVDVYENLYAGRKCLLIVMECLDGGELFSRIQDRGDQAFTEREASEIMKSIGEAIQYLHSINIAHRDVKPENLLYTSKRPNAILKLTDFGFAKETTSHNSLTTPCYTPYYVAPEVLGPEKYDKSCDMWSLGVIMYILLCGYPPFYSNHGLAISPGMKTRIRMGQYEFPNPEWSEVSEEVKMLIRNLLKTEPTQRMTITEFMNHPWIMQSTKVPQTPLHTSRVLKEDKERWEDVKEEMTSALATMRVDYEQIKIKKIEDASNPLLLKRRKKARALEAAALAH", "test": "Inhibition of recombinant human His-tagged full length MAPKAPK2 expressed in Escherichia coli expression system using Ser/Thr 04 as substrate at 10 uM incubated for 60 mins by Z'-lyte assay relative to control"}, "[8]": {"target": "Serine/threonine-protein kinase B-raf (Homo sapiens) (UniProt P15056)", "sequence (P15056 whole entry)": "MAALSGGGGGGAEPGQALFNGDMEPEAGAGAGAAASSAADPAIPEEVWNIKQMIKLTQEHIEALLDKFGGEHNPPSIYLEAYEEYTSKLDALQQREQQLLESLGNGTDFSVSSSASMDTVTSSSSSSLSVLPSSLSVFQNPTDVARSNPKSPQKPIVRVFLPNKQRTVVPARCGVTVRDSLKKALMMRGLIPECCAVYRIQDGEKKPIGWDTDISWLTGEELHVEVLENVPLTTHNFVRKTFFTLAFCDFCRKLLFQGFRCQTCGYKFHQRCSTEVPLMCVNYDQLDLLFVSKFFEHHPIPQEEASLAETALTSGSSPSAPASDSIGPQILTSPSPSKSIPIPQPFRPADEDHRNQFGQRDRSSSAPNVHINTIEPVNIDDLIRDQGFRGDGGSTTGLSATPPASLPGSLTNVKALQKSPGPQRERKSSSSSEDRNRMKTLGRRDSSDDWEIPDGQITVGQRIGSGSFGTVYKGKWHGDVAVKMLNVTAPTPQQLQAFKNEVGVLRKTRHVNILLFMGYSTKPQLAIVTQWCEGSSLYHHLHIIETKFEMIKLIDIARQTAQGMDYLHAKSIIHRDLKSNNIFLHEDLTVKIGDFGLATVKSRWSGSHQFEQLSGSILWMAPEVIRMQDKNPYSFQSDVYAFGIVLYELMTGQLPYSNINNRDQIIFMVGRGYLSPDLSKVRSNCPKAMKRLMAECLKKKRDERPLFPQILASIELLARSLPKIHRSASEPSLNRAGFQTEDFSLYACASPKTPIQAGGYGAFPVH", "test": "Inhibition of recombinant human GST-tagged full length BRAF expressed in baculovirus expression system using Ser/Thr 03 as substrate at 10 uM incubated for 60 mins by Z'-Lyte assay relative to control"}, "[9]": {"target": "Serine/threonine-protein kinase Sgk2 (Homo sapiens) (UniProt Q9HBY8)", "sequence (Q9HBY8 whole entry, the tested form may be a part)": "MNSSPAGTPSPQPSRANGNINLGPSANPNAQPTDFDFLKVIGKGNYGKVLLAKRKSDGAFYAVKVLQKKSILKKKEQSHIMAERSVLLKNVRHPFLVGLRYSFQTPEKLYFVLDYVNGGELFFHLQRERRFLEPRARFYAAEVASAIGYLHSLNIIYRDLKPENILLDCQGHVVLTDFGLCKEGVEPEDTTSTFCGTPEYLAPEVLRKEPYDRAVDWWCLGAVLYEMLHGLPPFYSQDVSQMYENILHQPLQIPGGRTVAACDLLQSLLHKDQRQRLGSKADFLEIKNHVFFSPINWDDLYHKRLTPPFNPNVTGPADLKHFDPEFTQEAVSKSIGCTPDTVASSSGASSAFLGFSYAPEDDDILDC", "test": "Inhibition of recombinant human GST-tagged full length SGK2 (54 to 427 residues) expressed in baculovirus expression system using Ser/Thr 06 as substrate at 10 uM incubated for 60 mins by Z'-Lyte assay relative to control"}, "[10]": {"test": "Clearance in Sprague-Dawley rat at 0.5 mg/kg, iv or 2 mg/kg, po", "assay_type": "ADME, organism-based", "conditions": "in vivo"}}}
{"smiles": "CN1C(=O)[C@@H](NC(=O)c2n[nH]c3ncc(C(F)(F)C(F)(F)F)cc23)COc2ccccc21", "values": [{"measurement": "inhibition", "setting": "[1]", "value": 6, "unit": "%"}, {"measurement": "inhibition", "setting": "[2]", "value": 5, "unit": "%"}, {"measurement": "inhibition", "setting": "[3]", "value": 2.5, "unit": "%"}, {"measurement": "inhibition", "setting": "[4]", "value": 5, "unit": "%"}, {"measurement": "inhibition", "setting": "[5]", "value": -0.5, "unit": "%"}, {"measurement": "inhibition", "setting": "[6]", "value": 3.5, "unit": "%"}, {"measurement": "inhibition", "setting": "[7]", "value": 4, "unit": "%"}, {"measurement": "inhibition", "setting": "[8]", "value": 26.5, "unit": "%"}, {"measurement": "inhibition", "setting": "[9]", "value": 4, "unit": "%"}, {"measurement": "clearance", "setting": "[10]", "value": 7.1, "unit": "mL/min/kg"}]}
